From US7241581B2, “Methods of identifying compounds that modulate IL-4 receptor-mediated IgE synthesis utilizing a c-MYC protein” (Rigel Pharmaceuticals, Inc., priority 2002, dated 2007) come the findings set out here.

Assay type in all cases: cell-based, human
Assay [1] relates to IL-4 induced germline ε transcription. Kind of assay: Re-infection assay in naive A5T4 cells (BFP- vs BFP+ populations, GFP by FACS). Conditions: geometric mean GFP fluorescence of BFP- population divided by BFP+ population, IL-4 60 U/mL, 3 days. The protocol: (§1) The ability of peptide BR10A1 wt to inhibit germline ε transcription was confirmed in naive cells. Briefly, Phoenix cells were transfected with a retroviral vector encoding a BFP-BR10A1 wt peptide fusion as described in WO 99/58663 and WO 97/27213. Naïve A5T4 cells were infected with the resultant virions and grown for 3 days. The infected cells were stimulated with IL-4 (60 U/mL) and, after 3 days, the cells were assessed by FACS for BFP and GFP. […] The BFP fluorescence data corresponding to the BFP^+ and BFP^− populations are provided in Panel A. The GFP fluorescence data corresponding to the BFP^+ and BFP^− populations are presented in Panel B. The reporter ratio for this purpose is determined as the geometric mean of the GFP fluorescence of the BFP^− population divided by the geometric mean of the GFP fluorescence of the BFP^+ population. The reporter ratio for the BR10A1 in this re-infection assay was 1.27.

Assay [2] deals with germline ε promoter. Put plainly: Functional profile of BR10A1 wt and mutants in the A5T4 reporter cell line. The settings on record: A5T4 reporter line. On the procedure:
Following infection, the library was enriched for cells expressing peptides that inhibit IL-4 induced ε transcription as generally outlined in the top half of FIG. 3 and sorted by FACS into single cell clones. The clones were then screened as generally illustrated in the lower half of FIG. 3. Briefly, for screening, each clone was divided into two populations and one population was treated with Dox (10 ng/ml). After 5 days, both populations were stimulated with IL-4 (final conc. 60 U/mL; PeptroTech, Inc.) and, after 3 more days, both populations were analyzed by FACS to measure BFP and GFP fluorescence. FACS data were converted to a “reporter ratio”, which is defined for this purpose as the ratio of the geometric mean of GFP fluorescence of the +IL-4/+Dox to the +IL-4/−Dox populations. Cells expressing a peptide that inhibits germline ε transcription have a reporter ratio of ≧1.1. A reporter ratio of ≧1.2 is indicative of strong inhibition.
as §1
A collection of BR10A1 mutants was generated by replacing single or double amino acid residues in the sequence of BR10A1 wt with a different amino acid, typically an alanine or glycine, as described in copending application Ser. No.10/095,659, entitled Methods of Identifying Protein Targets, filed Mar. 8, 2002 . The functional profiles for the mutants derived from BR10A1 wt was obtained by constructing and screening for activity in the A5T4 reporter cell line in the manner described above. The activity of each mutant at the germline ε promoter is reflected in the reporter ratio as described above. The reporter ratios were the functional values that were used to develop the functional profiles. Measurement of the reporter ratios of the mutant peptides was carried out in a number of separate experiments, each time comparing the value of cells transfected with mutant peptide to that of cells transfected with control WT peptide done at the same time. The reporter ratios of the control WT peptide can vary depending upon a number of factors including the infectivity or the state of the infected cells at the time of infection.
TABLE 2 depicts the amino acid sequences (the dual alanine mutations are underlined) of the mutants tested and the measured reporter ratios when screening in the A5T4 reporter line.
Comparison of the interaction and functional profiles was performed by categorizing the mutants of BR10A1 based on the functional and interaction assays. Based on the reporter ratio, each mutant was categorized into one of four functional categories: (1) reduction of function (ROF); (2) loss of function (LOF); (3) increase of function (IOF) or (4) functionally neutral (N) as compared to the activity of the wild type peptide, here BR10A1 wt. As mentioned previously, cells expressing a peptide that inhibits germline ε transcription have reporter ratios of ≧1.1. Cells expressing a loss of function (LOF) mutant have a reporter ratio of <1.11. […] Functionally neutral mutants have reporter ratios that fall within ±50% of that of the BR10A1 wt peptide. […]

Assay [3] concerns endogenous germline ε promoter. Put plainly: TAQMAN assay of endogenous germline ε promoter transcription in A5T4 cells. Conditions: relative expression units of +IL-4/+Dox to +IL-4/-Dox A5T4 cells; IL-4 60 U/ml, 3 days; average of 3 values. The protocol:
The ability of peptide BR10A1 wt to inhibit transcription of an endogenous germline ε promoter was confirmed using a TAQMAN® assay (Roche Molecular, Alameda, Calif.). Briefly, A5T4 cells were infected with retrovirus capable of expressing peptide BR10A1 wt (prepared as described above). The cells were sorted for BFP^+ to select for infected cells. Infected cells were divided into two populations. One population was exposed to Dox (10 ng/ml). Both populations were stimulated with IL-4 (60 U/ml). After 3 days, the cells were pelleted and the pellets assayed for ε promoter transcription using a TAQMAN assay performed as described in Applied Biosystems Protocol 4310299 (available at http:www.appliedbiosystems.com). The primers and probe, which are specific for the transcription product driven by the A5T4 endogenous ε promoter, were as follows (the probe was labeled at the 5′-end with Fam and at the 3′-end with Tamra): […]

As to “MQRRESCITRSVEEGWGLFYLGP (peptide encoded by random oligo-BR10A1wt) [wild-type peptide from random library, expressed in cells as BFP-peptide fusion]”, the Reporter Ratio was 1.27 in assay [1]; 1.27 in assay [2] (first value column (separate experiment with its own WT control)); 1.35 in assay [2] (fourth value column (separate experiment with its own WT control)); 1.36 in assay [2] (second value column (separate experiment with its own WT control)); 1.55 in assay [2] (separate experiment with its own WT control). The “endogenous ε inhibition ratio” value in assay [3] was found to be 2.18.
